# Measurements: patent publication US10815237B2, “Antimicrobials and methods of making and using same” (BIOVERSYS AG, priority 2016, dated 2020)
# Tests used:
# [1] = system: Chinese hamster ovary (CHO) cells; experiment: cytotoxicity against CHO cell line (Cell Titer Blue); type: cell-based; conditions: CHO-K1 cells, 24 hours incubation, percent cell kill
# Experimental: The compounds of the present disclosure were tested for cytotoxicity against Chinese hamster ovary (CHO) cells.
# The assay was performed by seeding CHO—K1 in F12K medium containing 13.33% Fetal Bovine Serum […]. 37.5 μl of cell suspension at a concentration of 9,500 cells/well was plated into each column of a 384-well black clear bottom assay plate with the exception of a negative (no cell) control column, and allowed to adhere for 2 hours. The culture media was then removed from the 175 cm^2 flask(s) and the cell monolayer washed with 10 mL of Phosphate Buffered Saline PBS. 3 mL of Cellstripper™ was then added and the flask was incubated for approximately 5 min at 37° C. The cells were dissociated by agitation and 7 mL of F 12K medium containing 10% FBS was added to the flask. A homogeneous cell suspension was obtained by trituration of the flask. The cells were counted with a hemocytometer by diluting an aliquot of the cell suspension in PBS with 0.4% trypan blue. Typically, a ratio of 100 μl cell suspension to 1800 μl PBS to 100 μl trypan blue was used.
# The volume of cell suspension containing the number of cells needed to seed the plate(s) (15.2 mL containing 3.8×10^6 cells) was calculated and transferred to a 50 mL centrifuge tube with the appropriate volume of media. 37.5 μl of cells were added to each well of the 384 well plate except for the negative (no cell) control column. A cytotoxicity 100-fold dilution plate was then prepared by manually pipetting 18 μl of 100% DMSO into two columns of an empty low volume dilution plate. 2 μl of a 50 mM solution of compounds 1-23 from the translation plate were manually pipetted into the corresponding columns of the 100-fold dilution plate. 10 μl of 100% DMSO was manually pipetted into all remaining columns of the 100-fold plate.
# A 4-fold cytotoxicity plate was prepared beforehand by manually pipetting 48 μl of F12K media (without DMSO and without FBS) into each well of a matrix 384 well plate. The test samples in the 100-fold dilution plate were mixed and diluted. Ten 2-fold dilutions were performed for each compound in duplicate. The 384 cannula array then transferred 2 μl to the 48 μl of media in the cytotoxicity 4-fold dilution plate. The array was then mixed and 12.5 μl of samples from the cytotoxicity 4-fold dilution plate were transferred to the 37.5 μl of cells and media. The final top concentration of samples at this point in the procedure was 50 μM with 10 subsequent 1:2 dilutions down to […]. The final DMSO concentration were 1% and the final concentration of FBS was 10%.
# Cycloheximide was run as a control. Specifically, Cycloheximide was diluted to 0.1 mM from 100 mM stock […] and was added to the cytotoxicity 100-fold plate. Upon addition to the cell plate, a range of 1 μM to 1 nM of cycloheximide was run.
# A column separate from the one (referred to above) that served as the negative control was used for cell control wells to which only media was added.
# The plates were then incubated for 24 hours at 37° C. and 5% CO2. […] The two columns used earlier to prepare the 100-fold dilution plate by pipetting 18 μl of 100% DMSO contained the samples tested at 200 μM. After the 24 hour incubation period, the 4 μl of Cell Titer blue was added to each well using a Multichannel Matrix pipettor. The plates were returned to the incubator and incubated for an additional 5 hours. Fluorescence (530 nm excitation wavelength/590 nm emission wavelength) was measured on a Wallac Victor microplate reader.
# Cell viability was assessed fluorometrically after a 5 hour incubation with resazurin (Cell Titer Blue™), which is reduced by living cells to the fluorescent resorufin.
# The average fluorescence for the negative control was determined to obtain the average blank fluorescence. The average blank fluorescence was subtracted from the fluorescence values obtained for all the test agents. The resulting values are the corrected fluorescence. […]
# [2] = system: Staphylococcus aureus (S. aureus) 11540 strain; experiment: standard microdilution MIC, S. aureus; type: cell-based; conditions: for MIC: Staphylococcus aureus
# Experimental: (§1) The in vitro activity of the compounds of the present disclosure can be determined. Antimicrobial testing is typically performed to determine the minimum inhibitory concentration (MIC). Minimum inhibitory concentrations (MICs) are determined by the microdilution method in a final volume of 100 μl according to protocols outlined by The Clinical and Laboratory Standards Institute (CLSI). Performance standards for reference strains are assessed within the same experimental design to maintain quality control. See, for example, Clinical Laboratory Standards Institute: Methods for dilution antimicrobial susceptibility tests for bacteria that grow aerobically M7-A8. Approved Standard-Eighth Edition. Wayne, Pa.: CLSI; December 2008; and Clinical Laboratory Standards Institute: Performance Standards for Antimicrobial Susceptibility Testing M100-S20; Approved Standard-Twentieth Edition. Wayne, Pa.: CLSI; June 2010.
# (§2) The compounds of the present disclosure were tested for antimicrobial activity. The Compounds 1-23 were run against Eschericia coli (E. coli) strain ATCC25922 and against Staphylococcus aureus (S. aureus) 11540 strain using a standard microdilution assay to determine minimum inhibitory concentrations (MICs). […] It will be recognized by one skilled in the art that the compounds can be assessed against other bacterial organisms and that the presentation of data for activity against Eschericia coli and Staphylococcus aureus are illustrative and in no way is intended to limit the scope of the present disclosure. The compounds of the present disclosure can be assayed against a range of other microorganisms depending upon the performance activity desired to be gathered. Furthermore, the “+” and “−” representation and the selection of a cutoff value of 16 micrograms/mL is also illustrative and in no way is intended to limit the scope of the present disclosure.
# [3] = system: Eschericia coli (E. coli) strain ATCC25922; experiment: standard microdilution MIC, E. coli; type: cell-based, Escherichia coli; conditions: for MIC: Escherichia coli
# Experimental: as §1, §2
SMILES,"IC50 ([1]; Cricetulus griseus, 24 h) [µM]",MIC [2] [µg/mL],MIC [3] [µg/mL],MIC S. aureus [2],MIC E.coli [3],IC50 [1] [µM]
C=C[C@@H](CCNC(=N)CN1CCOCC1)NCc1ccc(-n2cc3cc(-c4cc(CCC[C@H](C)N)cc(Cl)c4F)[nH]c3nc2=O)cc1 [Compound 1],> 100,,,,,
C=C[C@H](CCNC(=N)CN1CCSCC1)NCc1ccc(-n2cc3cc(-c4cc(CCC[C@H](C)N)cc(Cl)c4F)[nH]c3nc2=O)cc1 [Compound 3],> 100,≤ 16,≤ 16,,,
C[C@H](N)CCCc1cc(Cl)c(F)c(-c2cc3cn(-c4ccc(CN[C@@H](CO)CCNC(=N)CN5CCSCC5)cc4)c(=O)nc3[nH]2)c1 [Compound 4],> 100,≤ 16,≤ 16,,,
C=C[C@@H](CCNC(=N)CN1CC[C@H](F)C1)NCc1ccc(-n2cc3cc(-c4cc(CCC[C@H](C)N)cc(Cl)c4F)[nH]c3nc2=O)cc1 [Compound 5],> 100,≤ 16,≤ 16,,,
C=C[C@@H](CCNC(=N)CN1CCOCC1)NCc1ccc(-n2cc3cc(-c4cc(CCC[C@H](C)N)cc(Cl)c4F)[nH]c3nc2=O)cc1 [Compound 6],,≤ 16,≤ 16,,,
C=C[C@@H](CCNC(=N)CN1CCSCC1)NCc1ccc(-n2cc3cc(-c4cc(CCC[C@H](C)N)cc(Cl)c4F)[nH]c3nc2=O)cc1 [Compound 7],> 100,≤ 16,≤ 16,,,
C[C@H](N)CCCc1cc(Cl)c(F)c(-c2cc3cn(-c4ccc([C@H](C)NCCCNC(=N)CN)cc4)c(=O)nc3[nH]2)c1 [Compound 9],> 100,≤ 16,≤ 16,,,
CSc1cc(-n2cc3cc(-c4cc(CCC[C@H](C)N)cc(Cl)c4F)[nH]c3nc2=O)ccc1[C@@H]1CCC[C@@H](CCNC(=N)CN)N1 [Compound 10],> 100,≤ 16,≤ 16,,,
COC[C@H](N)CCCc1cc(OC(F)(F)F)c(F)c(-c2cc3cn(-c4ccc([C@@H]5CCC[C@@H](CCNC(=N)CN)N5)cc4)c(=O)nc3[nH]2)c1 [Compound 11],> 100,≤ 16,≤ 16,,,
N=C(CN)NCC[C@@H]1CCC[C@@H](c2ccc(-n3cc4cc(-c5cc(CCC[C@@H](N)C6CC6)cc(Cl)c5F)[nH]c4nc3=O)cc2)N1 [Compound 12],> 100,≤ 16,≤ 16,,,
C[C@H](N)CCCc1cc(Cl)c(F)c(-c2cc3cn(-c4ccc([C@@H]5CCC[C@@H](CCNC(=N)CN)N5)c(F)c4)c(=O)nc3[nH]2)c1 [Compound 13],> 100,≤ 16,≤ 16,,,
C[C@H](N)CCCc1cc(Cl)c(F)c(-c2cc3cn(-c4ccc([C@@H]5CCC[C@@H](CCNC(=N)CN)N5)cc4)c(=O)nc3[nH]2)c1 [Compound 14],,,,+ (the compound has an MIC value of 16 micrograms/mL or less),+ (the compound has an MIC value of 16 micrograms/mL or less),> 100
C[C@H](N)CCCc1cc(Cl)c(F)c(-c2cc3cn(-c4cc(F)c([C@@H]5CCC[C@@H](CCNC(=N)CN)N5)c(F)c4)c(=O)nc3[nH]2)c1 [Compound 15],> 100,≤ 16,≤ 16,,,
N=C(CN)NCC[C@@H]1CCC[C@@H](c2ccc(-n3cc4cc(-c5cc(CCC[C@@H](N)CO)cc(Cl)c5F)[nH]c4nc3=O)cc2)N1 [Compound 16],50.9,≤ 16,≤ 16,,,
C[C@H](N)CCCc1cc(-c2cc3cn(-c4ccc([C@@H]5CCC[C@@H](CCNC(=N)CN)N5)cc4)c(=O)nc3[nH]2)cc(C(F)(F)F)c1 [Compound 17],> 100,≤ 16,≤ 16,,,
CN=C(CN)NCC[C@@H]1CCC[C@@H](c2ccc(-n3cc4cc(-c5cc(CCC[C@H](C)N)cc(Cl)c5F)[nH]c4nc3=O)cc2)N1 [Compound 18],> 100,≤ 16,≤ 16,,,
CSC[C@H](N)CCCc1cc(Cl)c(F)c(-c2cc3cn(-c4ccc([C@@H]5CCC[C@@H](CCNC(=N)CN)N5)cc4)c(=O)nc3[nH]2)c1 [Compound 19],> 100,≤ 16,≤ 16,,,
C[C@H](N)CCCc1cc(Cl)c(F)c(-c2cc3cn(-c4ccc([C@@H]5CCC[C@@H](CCNC(=N)CN)N5CCCF)cc4)c(=O)nc3[nH]2)c1 [Compound 20],> 100,≤ 16,≤ 16,,,
C[C@H](N)CCCc1cc(-c2cc3cn(-c4ccc([C@@H]5CCC[C@@H](CCNC(=N)CN)N5)cc4)c(=O)nc3[nH]2)ccc1C(F)(F)F [Compound 21],> 100,≤ 16,≤ 16,,,
CSc1cc(-n2cc3cc(-c4cc(CCC[C@H](C)N)cc(C(F)(F)F)c4)[nH]c3nc2=O)ccc1[C@@H]1CCC[C@@H](CCNC(=N)CN)N1CCCF [Compound 22],> 100,≤ 16,≤ 16,,,
C[C@H](N)CCCc1cc(-c2cc3cn(-c4ccc([C@@H]5CCC[C@@H](CCNC(=N)CN)N5CCCF)cc4)c(=O)nc3[nH]2)cc(C(F)(F)F)c1 [Compound 23],> 100,≤ 16,≤ 16,,,
N=C(CN)NCC[C@@H]1CCC[C@@H](c2ccc(-n3cc4cc(-c5cc(CCC[C@@H](N)C6CC6)cc(C(F)(F)F)c5)[nH]c4nc3=O)cc2)N1CCCF [Compound 42],> 100,≤ 16,≤ 16,,,
N=C(CN)NCC[C@@H]1CCC[C@@H](c2ccc(-n3cc4cc(-c5cc(CCC[C@@H](N)C6CC6)cc(C(F)(F)F)c5)[nH]c4nc3=O)cc2F)N1CCCF [Compound 43],> 100,≤ 16,≤ 16,,,
C[C@H](N)CCCc1cc(-c2cc3cn(-c4ccc([C@@H]5CCC[C@@H](CCNC(=N)CN)N5CCCF)c(F)c4)c(=O)nc3[nH]2)cc(C(F)(F)F)c1 [Compound 44],> 100,≤ 16,≤ 16,,,
N=C(CN)NCC[C@@H]1CCC[C@@H](c2ccc(-n3cc4cc(-c5cc(CCC[C@@H](N)C6CC6)cc(Cl)c5F)[nH]c4nc3=O)cc2)N1CCCF [Compound 45],> 100,≤ 16,≤ 16,,,
C[C@H](N)CCCc1cc(Cl)c(F)c(-c2cc3cn(-c4ccc([C@@H]5CCC[C@@H](CCNC(=N)CN)N5CCCF)c(F)c4)c(=O)nc3[nH]2)c1 [Compound 46],> 100,≤ 16,≤ 16,,,
N=C(CN)NCC[C@@H]1CCC[C@@H](c2ccc(-n3cc4cc(-c5cc(CCC[C@@H](N)C6CC6)cc(Cl)c5F)[nH]c4nc3=O)cc2F)N1CCCF [Compound 47],50.5,≤ 16,≤ 16,,,
